Series [1] is described as follows: Cytotoxicity against human MCF7 cells assessed as reduction in cell viability at 300 uM after 72 hrs by MTT assay. The following applies: MCF7, 72 h. The format is functional. In general terms: Formazan colour is commonly taken as a measure of viable cells.
A short description of series [2]: Ratio of IC50 for human HEPG2 cells to concentration causing antioxidant activity in Salmonella typhimurium TA102 harboring […] mutant. Format: functional.
The nature of series [3]: Cytotoxicity against mouse LMTK cells assessed as reduction in cell viability after 72 hrs by MTT assay. The format is toxicity.
A short description of series [4]: Genotoxicity in Escherichia coli PQ37 expressing lacZ gene assessed as ratio of inducible beta-galactosidase activity to alkaline phosphatase activity at 30 mM after 2 hrs by SOS-chromotest relative to control. The format is toxicity. To be noted: Escherichia coli PQ37 cells expressing lacZ gene, read-out: FC.
A short description of series [5]: Cytotoxicity against mouse LMTK cells assessed as reduction in cell viability at 300 uM after 72 hrs by MTT assay. Format: toxicity. The following applies: read-out: INH.
Series [6] in a line: Cytotoxicity against human HepG2 cells assessed as reduction in cell viability after 72 hrs by MTT assay. The format is functional, cell-based. The following applies: HepG2, 72 h.
Series [7] in a line: Cytotoxicity against hamster AG17-1 cells assessed as reduction in cell viability after 72 hrs by MTT assay. The format is toxicity, cell-based, Cricetulus griseus. The following applies: Chinese hamster.
Series [8] in a line: Ratio of IC50 for human U937 cells to concentration causing antioxidant activity in Salmonella typhimurium TA102 harboring […] mutant. The format is functional, U-937.
Series [9] in a line: Ratio of IC50 for human RPMI8226 cells to concentration causing antioxidant activity in Salmonella typhimurium TA102 harboring […] mutant. Format: functional, RPMI-8226.
Series [10] can be described thus: Ratio of IC50 for human MCF7 cells to concentration causing antioxidant activity in Salmonella typhimurium TA102 harboring […] mutant. Format: functional.
Series [11] relates to Salmonella enterica subsp. enterica serovar Typhimurium. As to the kind of experiment: Antioxidant activity in Salmonella typhimurium TA102 harboring […] mutant assessed as inhibition of t-BuO2H-dependant mutant formation at 0.3 uM preincubated with compound followed by t-BuO2H addition after 48 hrs by Ames test. Format: functional. (In general: The Ames test detects mutagens through reverse mutation in bacteria.)

Series [12] can be described thus: Cytotoxicity against human CEM13 cells assessed as reduction in cell viability at 300 uM after 72 hrs by MTT assay. To be noted: CEM13, 72 h. Format: functional.
Series [13] in a line: Cytotoxicity against human U937 cells assessed as reduction in cell viability after 72 hrs by MTT assay. Format: functional, cell-based. The following applies: U-937, 72 h.
Series [14] can be described thus: Cytotoxicity against human MT4 cells assessed as reduction in cell viability at 300 uM after 72 hrs by MTT assay. To be noted: MT4, 72 h. Format: functional.
The nature of series [15]: Ratio of IC50 for human CEM13 cells to concentration causing antioxidant activity in Salmonella typhimurium TA102 harboring […] mutant. Format: functional.
Series [16] concerns Salmonella enterica subsp. enterica serovar Typhimurium. As to the kind of experiment: Antioxidant activity in Salmonella typhimurium TA102 harboring […] mutant assessed as inhibition of t-BuO2H-dependant mutant formation at 30 uM preincubated with compound followed by t-BuO2H addition after 48 hrs by Ames test. The format is functional.
Series [17] in a line: Cytotoxicity against human MCF7 cells assessed as reduction in cell viability after 72 hrs by MTT assay. Format: functional, cell-based. To be noted: MCF7, 72 h.
Series [18] in a line: Cytotoxicity against human CEM13 cells assessed as reduction in cell viability after 72 hrs by MTT assay. Format: functional, cell-based. To be noted: CEM13, 72 h.
Series [19] can be described thus: Cytotoxicity against human RPMI8226 cells assessed as reduction in cell viability after 72 hrs by MTT assay. Format: functional, cell-based. To be noted: RPMI-8226, 72 h.
Series [20] in a line: Cytotoxicity against human HepG2 cells assessed as reduction in cell viability at 300 uM after 72 hrs by MTT assay. The format is functional. The following applies: HepG2, 72 h.
Series [21] concerns Salmonella typhimurium. As to the kind of experiment: Genotoxicity in Salmonella typhimurium TA102 harboring […] mutant assessed as frequency of reversion from histidine auxotrophy to prototrophy at 30 mM after 48 hrs by Ames test (reference value: 209 +/- 10 No _unit). The format is toxicity, organism-based. The following applies: salmonella enterica subsp. enterica serovar typhimurium, 30000 µM.

Series [22] relates to Salmonella enterica subsp. enterica serovar Typhimurium. As to the kind of experiment: Antioxidant activity in Salmonella typhimurium TA102 harboring […] mutant assessed as inhibition of t-BuO2H-dependant mutant formation at 3 uM preincubated with compound followed by t-BuO2H addition after 48 hrs by Ames test. Format: functional.
Series [23] is described as follows: Cytotoxicity against human RPMI8226 cells assessed as reduction in cell viability at 300 uM after 72 hrs by MTT assay. The format is functional. To be noted: RPMI-8226, 72 h.
Series [24] in a line: Cytotoxicity against hamster AG17-1 cells assessed as reduction in cell viability at 300 uM after 72 hrs by MTT assay. The format is toxicity, cell-based, Cricetulus griseus. The following applies: Chinese hamster, read-out: INH.
Series [25] in a line: Ratio of IC50 for human MT4 cells to concentration causing antioxidant activity in Salmonella typhimurium TA102 harboring […] mutant. Format: functional.
Series [26] is described as follows: Cytotoxicity against human MT4 cells assessed as reduction in cell viability after 72 hrs by MTT assay. The format is functional, cell-based. To be noted: MT4, 72 h.
In series [27] the test system is Salmonella typhimurium. As to the kind of experiment: Genotoxicity in Salmonella typhimurium TA102 harboring […] mutant assessed as frequency of reversion from histidine auxotrophy to prototrophy at 0.35 mM after 48 hrs by Ames test (reference value: 209 +/- 10 No _unit). Format: toxicity, organism-based. The following applies: salmonella enterica subsp. enterica serovar typhimurium, 350 µM.

Series [28] can be described thus: Genotoxicity in Escherichia coli PQ37 expressing lacZ gene assessed as ratio of inducible beta-galactosidase activity to alkaline phosphatase activity at 1 mM after 2 hrs by SOS-chromotest relative to control. The format is toxicity. The following applies: Escherichia coli PQ37 cells expressing lacZ gene, read-out: FC.
A short description of series [29]: Genotoxicity in Escherichia coli PQ37 expressing lacZ gene assessed as ratio of inducible beta-galactosidase activity to alkaline phosphatase activity at 3 mM after 2 hrs by SOS-chromotest relative to control. The format is toxicity. The following applies: Escherichia coli PQ37 cells expressing lacZ gene, read-out: FC.

The values below come from ChEMBL document CHEMBL3865792, “Antioxidant and antitumor activity of trolox, trolox succinate, and α-tocopheryl succinate conjugates with nitroxides” (Eur J Med Chem, 2016).

On to `Cc1c(C)c2c(c(C)c1OC(=O)CCC(=O)O)CCC(C)(C(=O)NCC1CC(C)(C)N([O])C1(C)C)O2` (centres undefined), for which the inhibition (commonly the change of the read-out against control, counted positive when it falls) at 300 µM in series [1] was 24%; in series [12] it was 31%; in series [14] it was 46%; in series [20] it was 18%; in series [23], 22%. For the same compound, the Ratio in series [2], in series [8], in series [9], in series [10], in series [15] and in series [25] was 100 - 1000 each time. Besides, the IC50 at 72 h in [3] and in series [7] was > 300 µM throughout. Besides, the fold induction at 2 h, 30000 µM in series [4] is 1.3. The cytotoxicity at 72 h, 300 µM in series [5] stood at 0%; in series [24], 30%. Moreover, the IC50 (in general, the concentration that inhibits the measured activity by half) was > 300 µM in series [6]; 24 µM in series [13]; > 300 µM in series [17]; > 300 µM in series [18]; > 300 µM in [19]; > 300 µM in [26]. Moreover, the inhibition in series [11] stood at 31%; in series [16], 18%; in series [22] it was 22%. The Activity in the series on Salmonella typhimurium [21] was determined as 205.
Regarding `Cc1c(C)c2c(c(C)c1OC(=O)CCC(=O)O)CCC(C)(C(=O)NC1CC(C)(C)N([O])C1(C)C)O2` (centres undefined), the inhibition at 300 µM in series [1] came out at 25%; in [14], 45%; in [20], 25%; in [23], 28%. For the same compound, the Ratio in [2], in [8], in series [9], in [10], in series [15] and in series [25] was 100 - 1000 each time. The IC50 at 72 h in [3] and in series [7] was > 300 µM throughout. For the same compound, in [4], the fold induction at 2 h, 30000 µM worked out at 1.2. The cytotoxicity at 72 h, 300 µM in [5] stood at 0%; in series [24] it was 27%. Besides, the IC50 is > 300 µM in series [6]; 163 µM in series [13]; > 300 µM in series [17]; 205 µM in series [18]; > 300 µM in [19]; > 300 µM in series [26]. Besides, the inhibition was 6% in series [11], 33% in series [16] and 11% in [22]. For the same compound, the Activity in the series with Salmonella typhimurium [21] amounted to 221.
Turning to `CC(C)(C)OO` [TERT-BUTYL HYDROPEROXIDE], the Activity in the series on Salmonella typhimurium [27] is recorded as 482. Moreover, the fold induction at 2 h, 1000 µM in [28] turned out to be 11.6.
Regarding `Cc1c(C)c2c(c(C)c1OC(=O)CCC(=O)O)CCC(C)(C(=O)O)O2` (centres undefined), the inhibition at 300 µM in series [1] worked out at 15%; in [14], 34%. The IC50 at 72 h in series [3] and in series [7] was > 300 µM in each case. For the same compound, in series [4], the fold induction at 2 h, 30000 µM was determined as 1.1. For the same compound, the figures for the cytotoxicity at 72 h, 300 µM in [5] and in series [24] were 7% and 27%, respectively. In addition, the concentration for half-maximal inhibition (IC50) in series [6] was 242 µM; in series [13] it was 120 µM; in series [17] it was > 300 µM; in series [18], 191 µM; in series [19], 63 µM; in series [26] it was 285 µM. Further, the inhibition in series [11], in series [16] and in series [22] was 35% each time. In addition, the Activity in the series with Salmonella typhimurium [21] was found to be 216.
Regarding `Cc1c(C)c2c(c(C)c1O)CC[C@@](C)(CCC[C@H](C)CCC[C@H](C)CCCC(C)C)O2` [ALPHA-TOCOPHEROL], the inhibition at 300 µM in series [1] came out at 37%; in series [12] it was 35%; in series [20] it was 0%; in series [23] it was 0%. Besides, the IC50 at 72 h in [3] and in series [7] was > 300 µM in each case. The figures for the cytotoxicity at 72 h, 300 µM in series [5] and in [24] were 28% and 12%, respectively. Further, the IC50 in series [6] is > 300 µM; in series [13], 100 µM; in series [17], > 300 µM; in series [18] it was > 300 µM; in series [19], > 300 µM; in series [26], 165 µM. Besides, the inhibition in series [11] is 6%; in series [16], 15%; in series [22] it was 13%. The Activity with Salmonella typhimurium [21] stood at 217. Besides, the fold induction at 2 h, 3000 µM in series [29] was determined as 1.28.
